Experimental data: patent publication US20250074891A1 (Anaxis Pharma Pty Ltd., priority 2021, published 2025)

Assays:
MLKL (full length) = MLKL (full length) (Homo sapiens (Human), UniProt Q8NB16); test: KINOMEscan binding assay, MLKL (full length); conditions: Table 36
Description: Kinase assays. For most assays, kinase-tagged T7 phage strains were grown in parallel in 24-well blocks in an E. coli host derived from the BL21 strain. E. coli were grown to log-phase and infected with T7 phage from a frozen stock (multiplicity of infection=0.4) and incubated with shaking at 32° C. until lysis (90-150 minutes).
The Hill Slope was set to −1.

[1] = system: U937 human histiocytic leukemia cell line; test: Cellular assay: inhibition of TSQ induced necroptosis (CellTitre-Glo); conditions: Homo sapiens, U-937; U937 cells, TSQ cocktail, 48 hours, Table 38; read-out: Inhibition of TSQ-induced necroptosis (IC50 cell-based assay)
Description: […] ASSAY: Screening compounds for inhibition of TSQ induced necroptosis, 384 well plate format.
Cell Line ID: U937 human histiocytic leukemia cell line.
Cell Concentration (cells/well): Final cell density is 20,000 cells per well.
Cell growth medium: HT-RPMI medium+7.4% Fetal Bovine Serum (FBS). Cells are cultured in Corning 150 cm^z tissue culture flasks with vented caps at 37° C./5% CO2.
Incubation: Plates were incubated at 37° C./5% CO2 in a humidified incubator for 48 hours following addition of compounds and death stimuli (TSQ cocktail).
Compound concentration: 36 μM starting concentration, 1:3 dilution, 10 point
DMSO final concentration (% v/v): 0.3%.
Compounds in TSQ cocktail (T: TNF; S: Smac mimetic; Q: Q-VD-OPh) and their final concentrations: • hTNF-Fc (100 ng/ml)—produced by standard procedures as shown in Bossen et al., J Biol Chem, 2006, 281(20), 13964-13971. • Compound A (500 nM)—Smac mimetic, Tetralogic and SYNthesis med chem • Q-VD-OPh (10 μM)—MP Biomedicals
The cellular assay was carried out according to the following steps: • 1. Each well was prepared by sequential addition of: • a. DMSO (control; columns 1-2 and 23-24) or compound in DMSO—addition was performed using acoustic transfer of nl volumes of stock compound to give final test concentrations of 36, 12, 4, 1.3, 0.44, 0.148, 0.049, 0.016, 0.005 and 0.002 μM. All wells were backfilled with DMSO to a final total volume in the well of 100 nl. • b. Following compound/DMSO addition in step (a), 40 μL of cell suspension (5×10^5 cells/mL) was added to provide a final cell concentration of 20,000 cells per well, and • c. Following cell addition in step (b), 10 μL of 5×TSQ cocktail (except to positive controls; […]) was added to each well. • 2. After 48 hours, plate was removed from the 37° C. incubator and equilibrated to room temperature for 45 minutes. • 3. 15 μL of room temperature CellTitre-Glo2™ (Promega™) was added to each well. • 4. Shook plates for 2 minutes (˜600 rpm) and incubated at room temperature for 15 minutes to allow signal to stabilise. • 5. Read luminescence readout on a plate reader.
Percent viability was calculated for each compound according to equation (2):
[formula] • wherein • RawData is the readout of any cell containing a compound of the invention • TA is the total activity provided by the luminescence readout from DMSO only wells (columns 2 and 24)=100% viability • NSA is the non-specific activity provided by DMSO+TSQ wells (columns 1 and 23)=0% viability
Curve fitting: 10-point titration curves are fitted with the 4-parameter logistic nonlinear regression model and the IC50 reported is the inflection point of the curve.
Analysis: Data was loaded into Dotmatics™ and visualised using the Tibco® Spotfire™ software. 10 points titration curves were fitted with the 4-parameter logistic nonlinear regression model and the IC50 reported reflect the inflection point of the curve for curve fitting.
Assay involving the TSQ cocktail (T: TNF; S: Smac mimetic; Q: Q-VD-OPh): TSQ treatment ensures that cells specifically undergo necroptotic cell death. TNF activates the TNF receptor, Smac mimetic directs the signal away from proinflammatory signaling and toward the RIP1/RIP3-mediated cell death pathways, and Q-VD-OPh ensures that the apoptotic response is blocked leaving only the programmed necrosis response. The compounds' activity (solution in DMSO) tested in this TSQ-induced assay was evaluated by determining the number of viable cells in culture by measuring the amount of ATP present as measured by CelltiterGlo.

U937 cells = test: Counter screen: cell viability without TSQ cocktail (off-target effect); set-up: species or system human; conditions: Homo sapiens, U-937, Table 38, read-out: Off-target effect (IC50 cell-based assay)
Description: Counter screen: In parallel, all compounds were tested for their ability to affect cell viability. The same U937 cells were treated with compound in DMSO without the TSQ cocktail. This counter screen enabled evaluation of off-target effects. In this case, cell viability was measured by CelltiterGlo.

MLKL (full length), sequence (Q8NB16 whole entry): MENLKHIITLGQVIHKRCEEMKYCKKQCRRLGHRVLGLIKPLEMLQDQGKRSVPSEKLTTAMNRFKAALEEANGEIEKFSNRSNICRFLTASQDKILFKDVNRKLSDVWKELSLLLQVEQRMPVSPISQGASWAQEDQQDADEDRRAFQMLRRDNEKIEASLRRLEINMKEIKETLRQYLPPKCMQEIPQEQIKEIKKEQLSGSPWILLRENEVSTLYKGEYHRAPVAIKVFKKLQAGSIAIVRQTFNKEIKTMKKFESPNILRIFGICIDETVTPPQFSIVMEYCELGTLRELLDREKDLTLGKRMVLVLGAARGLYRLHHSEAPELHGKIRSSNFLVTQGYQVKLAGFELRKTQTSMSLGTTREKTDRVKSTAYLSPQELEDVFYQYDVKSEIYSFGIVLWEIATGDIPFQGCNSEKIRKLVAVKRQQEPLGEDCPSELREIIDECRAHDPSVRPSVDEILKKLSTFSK

SMILES	Kd (MLKL (full length))	IC50 [1]	IC50 (U937 cells)
Cc1ncsc1-c1ccc(CNC(=O)[C@@H]2C[C@@H](O)CN2C(=O)[C@@H](NC(=O)CCn2ccc(Nc3[nH]nc(-c4ccc(NS(=O)(=O)C(F)F)c(O[C@@H](C)c5ccc(F)cc5)c4)c3C(N)=O)n2)C(C)(C)C)cc1 [Compound 1032, 3-[4-(difluoromethanesulfonamido)-3-[(1S)-1-(4-fluorophenyl)ethoxy]phenyl]-5-{[1-(2-{[(2S)-1-[(2S,4R)-4-hydroxy-2-({[4-(4-methyl-1,3-thiazol-5-yl)phenyl]methyl}carbamoyl)pyrrolidin-1-yl]-3,3-dimethyl-1-oxobutan-2-yl]carbamoyl}ethyl)-1H-pyrazol-3-yl]amino}-1H-pyrazole-4-carboxamide]	< 0.01 µM	> 10 µM	> 10 µM
Cc1ncsc1-c1ccc(CNC(=O)[C@@H]2C[C@@H](O)CN2C(=O)[C@@H](NC(=O)CCCn2ccc(Nc3[nH]nc(-c4ccc(NS(=O)(=O)C(F)F)c(O[C@@H](C)c5ccc(F)cc5)c4)c3C(N)=O)n2)C(C)(C)C)cc1 [Compound 1033, 3-[4-(difluoromethanesulfonamido)-3-[(1S)-1-(4-fluorophenyl)ethoxy]phenyl]-5-{[1-(3-{[(2S)-1-[(2S,4R)-4-hydroxy-2-({[4-(4-methyl-1,3-thiazol-5-yl)phenyl]methyl}carbamoyl)pyrrolidin-1-yl]-3,3-dimethyl-1-oxobutan-2-yl]carbamoyl}propyl)-1H-pyrazol-3-yl]amino}-1H-pyrazole-4-carboxamide]	< 0.01 µM	1 to 10 µM	> 10 µM
Cc1ncsc1-c1ccc(CNC(=O)[C@@H]2C[C@@H](O)CN2C(=O)[C@@H](NC(=O)COCCn2ccc(Nc3[nH]nc(-c4ccc(NS(=O)(=O)C(F)F)c(O[C@@H](C)c5ccc(F)cc5)c4)c3C(N)=O)n2)C(C)(C)C)cc1 [Compound 1036, 3-[4-(difluoromethanesulfonamido)-3-[(1S)-1-(4-fluorophenyl)ethoxy]phenyl]-5-({1-[2-({[(2S)-1-[(2S,4R)-4-hydroxy-2-({[4-(4-methyl-1,3-thiazol-5-yl)phenyl]methyl}carbamoyl)pyrrolidin-1-yl]-3,3-dimethyl-1-oxobutan-2-yl]carbamoyl}methoxy)ethyl]-1H-pyrazol-3-yl}amino)-1H-pyrazole-4-carboxamide]	< 0.01 µM	1 to 10 µM	> 10 µM
Cc1ncsc1-c1ccc(CNC(=O)[C@@H]2C[C@@H](O)CN2C(=O)[C@@H](NC(=O)COCCOCCn2ccc(Nc3[nH]nc(-c4ccc(NS(=O)(=O)C(F)F)c(O[C@@H](C)c5ccc(F)cc5)c4)c3C(N)=O)n2)C(C)(C)C)cc1 [Compound 1037, 3-[4-(difluoromethanesulfonamido)-3-[(1S)-1-(4-fluorophenyl)ethoxy]phenyl]-5-[(1-{2-[2-({[(2S)-1-[(2S,4R)-4-hydroxy-2-({[4-(4-methyl-1,3-thiazol-5-yl)phenyl]methyl}carbamoyl)pyrrolidin-1-yl]-3,3-dimethyl-1-oxobutan-2-yl]carbamoyl}methoxy)ethoxy]ethyl}-1H-pyrazol-3-yl)amino]-1H-pyrazole-4-carboxamide]	< 0.01 µM	< 1 µM	> 10 µM
CCS(=O)(=O)Nc1ccc(-c2n[nH]c(Nc3ccc(C(=O)OCCOCC(=O)N[C@H](C(=O)N4C[C@H](O)C[C@H]4C(=O)NCc4ccc(-c5scnc5C)cc4)C(C)(C)C)cn3)c2C(N)=O)cc1O[C@@H](C)c1ccc(F)cc1 [Compound 1046, 2-({[(2S)-1-[(2S,4R)-4-hydroxy-2-({[4-(4-methyl-1,3-thiazol-5-yl)phenyl]methyl}carbamoyl)pyrrolidine-1-yl]-3,3-dimethyl-1-oxobutan-2-yl]carbamoyl}methoxy)ethyl 6-[(4-carbamoyl-3-{4-ethanesulfonamido-3-[(1S)-1-(4-fluorophenyl)ethoxy]phenyl}-1H-pyrazol-5-yl)amino]pyridine-3-carboxylate]	0.01 to 1 µM	< 1 µM	> 10 µM
Cc1ncsc1-c1ccc(CNC(=O)[C@@H]2C[C@@H](O)CN2C(=O)[C@@H](NC(=O)CCCCC#Cc2ccc(Nc3[nH]nc(-c4ccc(NS(=O)(=O)C(F)F)c(O[C@@H](C)c5ccc(F)cc5)c4)c3C(N)=O)nc2)C(C)(C)C)cc1 [Compound 1047, 3-[4-(difluoromethanesulfonamido)-3-[(1 S)-1-(4-fluorophenyl)ethoxy]phenyl]-5-{[5-(6-{[(2S)-1-[(2S,4R)-4-hydroxy-2-({[4-(4-methyl-1,3-thiazol-5-yl)phenyl]methyl}carbamoyl)pyrrolidin-1-yl]-3,3-dimethyl-1-oxobutan-2-yl]carbamoyl}hex-1-yn-1-yl)pyridin-2-yl]amino}-1H-pyrazole-4-carboxamide]	0.01 to 1 µM	< 1 µM	1 to 10 µM
Cc1ncsc1-c1ccc(CNC(=O)[C@@H]2C[C@@H](O)CN2C(=O)[C@@H](NC(=O)CCCCOC(=O)c2ccc(Nc3[nH]nc(-c4ccc(NS(=O)(=O)C(F)F)cc4)c3C(N)=O)nc2)C(C)(C)C)cc1 [Compound 1049, 4-{[(2S)-1-[(2S,4R)-4-hydroxy-2-({[4-(4-methyl-1,3-thiazol-5-yl)phenyl]methyl}carbamoyl)pyrrolidine-1-yl]-3,3-dimethyl-1-oxobutan-2-yl]carbamoyl}butyl 6-({4-carbamoyl-3-[4-(difluoromethanesulfonamido)phenyl]-1H-pyrazol-5-yl}amino)pyridine-3-carboxylate]	< 0.01 µM	1 to 10 µM	> 10 µM
CCS(=O)(=O)Nc1ccc(-c2n[nH]c(Nc3ccc(C(=O)OCCCCC(=O)N[C@H](C(=O)N4C[C@H](O)C[C@H]4C(=O)NCc4ccc(-c5scnc5C)cc4)C(C)(C)C)cn3)c2C(N)=O)cc1OCc1ccc(F)cc1 [Compound 1052, 4-{[(2S)-1-[(2S,4R)-4-hydroxy-2-{{[4-(4-methyl-1,3-thiazol-5-yl)phenyl]methyl}carbamoyl)pyrrolidin-1-yl]-3,3-dimethyl-1-oxobutan-2-yl]carbamoyl}butyl 6-[(4-carbamoyl-3-{4-ethanesulfonamido-3-[(4-fluorophenyl)methoxy]phenyl}-1H-pyrazol-5-yl)amino]pyridine-3-carboxylate]	1 to 30 µM	> 10 µM	> 10 µM
Cc1ncsc1-c1ccc(CNC(=O)[C@@H]2C[C@@H](O)CN2C(=O)[C@@H](NC(=O)CCCCOC(=O)c2ccc(Nc3[nH]nc(-c4ccc(NS(=O)(=O)C(F)F)c(OCc5ccc(F)cc5)c4)c3C(N)=O)nc2)C(C)(C)C)cc1 [Compound 1055, 4-{[(2S)-1-[(2S,4R)-4-hydroxy-2-({[4-(4-methyl-1,3-thiazol-5-yl)phenyl]methyl}carbamoyl)pyrrolidin-1-yl]-3,3-dimethyl-1-oxobutan-2-yl]carbamoyl}butyl 6-({4-carbamoyl-3-[4-(difluoromethanesulfonamido)-3-[(4-fluorophenyl)methoxy]phenyl]-1H-pyrazol-5-yl}amino)pyridine-3-carboxylate]	0.01 to 1 µM	< 1 µM	> 10 µM
